Source: US5869464A, “2'-Deoxy-5-fluorouridine derivatives, a process for their preparation, antitumor agents containing same and methods for using said agents” (Taiho Pharmaceutical Co. Ltd., priority 1993, dated 1999)
Where two headings read alike, the source gives them in different places.

What was measured:
Yoshida sarcoma cells [1] = test: Antitumor effect on subcutaneously transplanted Yoshida sarcoma (Pharmacological Test Example 1); assay type: in vivo, rat (male Donryu/CRJ strain); conditions: oral; for ED50: Rattus norvegicus, YOSHIDA, once a day for 7 consecutive days from 24 h after transplantation, 8th day, read-out: ED50 (effective dose for achieving 50% inhibition of tumor growth); for T.I. (therapeutic index = BWC50/ED50): once a day for 7 consecutive days
Description: The compounds of the present invention were tested for antitumor effect.
Rat-transplantable tumor, Yoshida sarcoma cells (2×10^4) were subcutaneously transplanted in the back of male Donryu/CRJ strain rats (weighing 150 to 165 g). The test compounds were suspended in a 0.5% aqueous solution of hydroxypropylmethyl cellulose. Twenty-four hours after the transplantation, each suspension was orally administered to rats (7 rats in each group) in an amount of 1.0 ml per 100 g of rats' body weight once a day for 7 consecutive days. Only a solution of hydroxypropylmethyl cellulose containing no test compound was orally administered to the control group in an amount of 1.0 ml/100 g rats' body weight once a day for 7 consecutive days starting 24 hours after the transplantation.
The rats were sacrificed on the 8th day after the transplantation and their tumors were extirpated. The tumors were weighed to calculate an average tumor weight at each dose. The results were compared between the treated group and the control group. An effective dose (ED50) for achieving 50% inhibition of tumor growth was determined from the dose-tumor reduction curve. A dose of 50% inhibition of body weight gain (BWC50)was determined from the dose-body weight change curve. The therapeutic index (T.I.=BWC50 /ED50) was also determined.

[2] = Inhibition of body weight gain in Yoshida sarcoma-bearing rats (Pharmacological Test Example 1); parameters: species or system rat (male Donryu/CRJ strain); conditions: rat, in vivo
[3] = system: human stomach cancer strain, H-81; test: Tumor growth inhibition, nude rat-transplantable human stomach cancer strain H-81 (Pharmacological Test Example 2(b)); assay type: in vivo, human tumor in male F344/N Jcl-rnu nude rat; conditions: once a day for 14 consecutive days
Source text: (§1) (a) A tumor piece (about 2 mm^3) of nude rat-transplantable human kidney cancer strain, JRC-11, was subcutaneously transplanted in the armpit of each male F344/N Jcl-rnu nude rat. The treatment of rats (7 rats in each group) started when the rats' tumors grew to an estimated volume of 250 mm^3 as calculated by an equation
wherein L is the length of the tumor and W is the width of the tumor, each being measured by calipers. The treated group (rats to be treated with the test compounds) and the control group were tested under equal conditions concerning the mean value of tumor volume and standard deviation. The test compounds were suspended in a 0.5% aqueous solution of hydroxypropylmethyl cellulose. […]
(§2) A ratio of tumor growth of each rat was calculated from two tumor volumes on the first day of administration and on the day following the last administration. A mean ratio of tumor growth of the group (T) or the control group (C) was calculated from said ratio. Then, a tumor growth inhibition ratio (%) was calculated by the following equation: […]
(b) The same experiment as in (a) was conducted except that a nude rat-transplantable human stomach cancer strain, H-81, was used in place of the nude rat-transplantable human kidney cancer strain, JRC-11. A tumor growth inhibition ratio was calculated.

[4] = system: human kidney cancer strain, JRC-11; test: Tumor growth inhibition, nude rat-transplantable human kidney cancer strain JRC-11 (Pharmacological Test Example 2(a)); assay type: in vivo, human tumor in male F344/N Jcl-rnu nude rat; conditions: once a day for 14 consecutive days
Source text: as §1
wherein L is the length of the tumor and W is the width of the tumor, each being measured by calipers. The treated group (rats to be treated with the test compounds) and the control group were tested under equal conditions concerning the mean value of tumor volume and standard deviation. The test compounds were suspended in a 0.5% aqueous solution of hydroxypropylmethyl cellulose. Each suspension was orally administered to rats in an amount of 1.0 ml per 100 g of rats' body weight once a day for 14 consecutive days. Only a solution of hydroxypropylmethyl cellulose containing no test compound was orally administered to the control group in an amount of 1.0 ml per 100 g rats' body weight once a day for 14 consecutive days.
as §2

Yoshida sarcoma cells [5] = test: Antitumor effect on subcutaneously transplanted Yoshida sarcoma (Pharmacological Test Example 1); assay type: in vivo, rat (male Donryu/CRJ strain); conditions: for ED50: Rattus norvegicus, YOSHIDA, iv, read-out: ED50 (effective dose for achieving 50% inhibition of tumor growth)
[6] = under the influence of pyrimidine nucleoside phosphorylase; cited from earlier work
tumor cells = conditions: in vitro tests; cited from earlier work
[7] = CVI: continuous intravenous drip injection

O=c1[nH]c(=O)n([C@H]2C[C@H](OCc3ccc(Cl)cc3F)[C@@H](CO)O2)cc1F [Comparative Compound 1, 3'-O-(4-chloro-2-fluorobenzyl)-2'-deoxy-5-fluorouridine]
ED50 (Yoshida sarcoma cells [1]): 7.5 mg/kg
T.I. (therapeutic index = BWC50/ED50) (Yoshida sarcoma cells [1]): 1.1
TD50 ([2]; po): 8.5 mg/kg

CCCOc1nc(=O)n([C@H]2C[C@H](O)[C@@H](CO)O2)cc1F [Comparative Compound 2, 2'-deoxy-4-O-n-propyl-5-fluorouridine]
ED50 (Yoshida sarcoma cells [1]): 34 mg/kg
T.I. (therapeutic index = BWC50/ED50) (Yoshida sarcoma cells [1]): 1.1
TD50 ([2]; po): 37 mg/kg

CCCCC(=O)OC[C@H]1O[C@@H](n2cc(F)c(OCc3ccc(F)cc3)nc2=O)C[C@@H]1OC(=O)CCCC [Comparative Compound 3, 2'-deoxy-4-O-(4-fluorobenzyl)-3',5'-di-O-n-pentanoyl-5-fluorouridine]
ED50 (Yoshida sarcoma cells [1]): > 40 mg/kg
T.I. (therapeutic index = BWC50/ED50) (Yoshida sarcoma cells [1]): < 1.0
TD50 ([2]; po): 40 mg/kg

CCCOc1nc(=O)n([C@H]2C[C@H](OCc3ccc(Cl)cc3F)[C@@H](CO)O2)cc1F [Compound 3]
ED50 (Yoshida sarcoma cells [1]): 4 mg/kg
T.I. (therapeutic index = BWC50/ED50) (Yoshida sarcoma cells [1]): 3.5
TD50 ([2]; po): 14 mg/kg

CCCOc1nc(=O)n([C@H]2C[C@H](OCc3ccc(F)cc3F)[C@@H](CO)O2)cc1F [Compound 7]
ED50 (Yoshida sarcoma cells [1]): 7.5 mg/kg
T.I. (therapeutic index = BWC50/ED50) (Yoshida sarcoma cells [1]): 2.4
TD50 ([2]; po): 18 mg/kg

CCCOc1nc(=O)n([C@H]2C[C@H](OCc3ccc(Cl)cc3Cl)[C@@H](CO)O2)cc1F [Compound 12]
ED50 (Yoshida sarcoma cells [1]): 3 mg/kg
T.I. (therapeutic index = BWC50/ED50) (Yoshida sarcoma cells [1]): 5.3
TD50 ([2]; po): 16 mg/kg

CCOc1nc(=O)n([C@H]2C[C@H](OCc3ccc(Cl)cc3F)[C@@H](CO)O2)cc1F [Compound 13, 3'-O-(4-chloro-2-fluorobenzyl)-2'-deoxy-4-O-ethyl-5-fluorouridine]
Inhibition ratio (%) (tumor growth) ([3]; 3.75 mg/kg oral): 74%
Inhibition ratio (%) (tumor growth) ([3]; 7.5 mg/kg oral): 79%
Inhibition ratio (%) (tumor growth) ([4]; 3.75 mg/kg oral): 67%
Inhibition ratio (%) (tumor growth) ([4]; 7.5 mg/kg oral): 73%

O=c1[nH]c(=O)n([C@H]2C[C@H](O)[C@@H](CO)O2)cc1F [FdUrd, 2'-deoxy-5-fluorouridine]
T.I. (therapeutic index = BWC50/ED50) (Yoshida sarcoma cells [5]; [7]): 0.88
ED50 (Yoshida sarcoma cells [5]; [7]): 0.8 mg/kg
ED50 (Yoshida sarcoma cells [5]; iv: intravenous injection): 44 mg/kg
T.I. (therapeutic index = BWC50/ED50) (Yoshida sarcoma cells [5]; iv: intravenous injection): 1.36
therapeutic effect in vivo [6]: can not produce a satisfactory therapeutic effect
inhibition of the growth of tumor cells (tumor cells): significantly inhibits the growth of tumor cells
TD50 ([2]; iv, CVI: continuous intravenous drip injection, read-out: BWC50 (dose of 50% inhibition of body weight gain)): 0.7 mg/kg
TD50 ([2]; iv, iv: intravenous injection, read-out: BWC50 (dose of 50% inhibition of body weight gain)): 60 mg/kg
